Experimental data from US20060111305A1, “Metabolites of certain [1,4]diazepino[6,7,1-ij]quinoline derivatives and methods of preparation and use thereof” (Wyeth, priority 2004, published 2006).
Where “and” joins values, the source holds several entries; their conditions need not be identical. Identical values can stand only once. Like-named read-outs stand apart in the source and are kept apart here.

Assay: Concentrations of DCDQ and DCDQ carbamoyl glucuronide (M6) in human plasma, LC/SRM (Table 34)
Assay type: in vivo, healthy human subjects
Conditions: plasma, plasma; for concentration at 6 h / concentration at 12 h / concentration at 24 h: human, oral, read-out: DCDQ concentration in plasma
Experimental: Drug administration and specimen collection were performed in a randomized, double-blinded, placebo-controlled, ascending single dose study of the safety, tolerability, pharmacokinetics, and pharmacodynamics of DCDQ administered orally to healthy subjects and subjects with schizophrenia and schizoaffective disorder. The specimens were stored at approximately −70° C. until analysis for metabolite profiles and for ratios of carbamoyl glucuronide (M6) to DCDQ.
Plasma samples from fasted subjects 25, 28 and 30 in the 50 mg single dose group, fasted subjects 50, 51, 54 in the 200 mg single dose group, fasted subjects 74, 76, 79 in the 300 mg single dose group, fed subjects 83, 84, 86 in the 300 mg single dose group and fasted subjects 92, 94, 96 in the 500 mg single dose group were analyzed for DCDQ carbamoyl glucuronide (M6) concentrations. The internal standard d8-DCDQ (25 μL of 200 ng/mL methanol solution) was added to 100 μL of the plasma samples, followed by the addition of 300 μL of acetonitrile. The samples were mixed and centrifuged at 14000 rpm in an Eppendorf 5415C centrifuge (Brinkman Instruments Inc., Westbury, N.Y.) for 10 minutes. The supernatant of each sample was transferred to a clean tube and evaporated to dryness under a stream of nitrogen in a TurboVap LV evaporator (Caliper Life Sciences, Hopkinton, Mass.). The residue was reconstituted with 50 μL of methanol followed by the addition of 150 μL of water. The sample was mixed and centrifuged as described above. The supernatant was analyzed by LC/MS/MS analysis. Samples for standard curves were prepared with control plasma spiked with synthetic M6. The concentrations of M6 used for the standard curve ranged from 0 to 2500 ng/mL plasma.
LC/MS System 3 was used for semi-quantitative analysis of metabolite M6 (DCDQ carbamoyl glucuronide) in plasma and urine samples. The HPLC equipment for this LC/MS System consisted of a Thermo Surveyor HPLC (Thermo Electron Corp., San Jose, Calif.), including a Surveyor MS pump and autosampler. Separations were accomplished on a 5 micron Phenomenex Luna C18(2) column, 150×2 mm (Phenomenex, Torrance, Calif.). The autosampler and column temperatures were set at 5° C. and 40° C., respectively. The HPLC mobile phase consisted of 10 mM ammonium acetate (A) and methanol (B), and was delivered at 0.2 mL/min. The linear mobile phase gradient (HPLC Gradient 2) is shown below. During LC/MS sample analysis, up to 3 min of the initial flow was diverted away from the mass spectrometer prior to evaluation of metabolites.
The mass spectrometer used for semi-quantitative anslysis with LC/MS System 3 was a Finnigan TSQ Quantum triple quadrupole mass spectrometer (Thermo Electron Corp.). The mass spectrometer was equipped with an electrospray interface and operated in the positive ionization mode. Settings for this mass spectrometer are listed below.
LC/MS/MS analysis in the selected reaction monitoring (SRM) mode (LC/SRM) was conducted for DCDQ and M6 using the following settings.
The computer program Microsoft Excel® 97 was used to calculate means and standard deviations and to perform the student t-test. Xcalibur (version 1.3) and MassLynx software (version 4.0) were used for collection and analysis of LC/MS data. Peak area ratios of M6 to the internal standard were used for quantitation of M6 in plasma samples.

c1cc2c3c(c1)[C@H]1CCC[C@H]1CN3CCNC2 [DCDQ, (9aR,12aS)-4,5,6,7,9,9a,10,11,12,12a-decahydro-cyclopenta[c][1,4]diazepine[6,7,1-ij]quinoline, reference compound]
concentration at 6 h (50 mg, 50 mg (fasted), 6 hr, Mean ± S.D.): 2.47 ± 2.21 ng/mL | concentration at 12 h (50 mg, 50 mg (fasted), 12 hr, Mean ± S.D.): 1.2 ± 1.14 ng/mL | concentration at 24 h (50 mg, 50 mg (fasted), 24 hr, Mean (standard deviation not calculated)): 0.4 ng/mL | concentration at 6 h (200 mg, 200 mg (fasted), 6 hr, Mean ± S.D.): 10.9 ± 7.71 ng/mL | concentration at 12 h (200 mg, 200 mg (fasted), 12 hr, Mean ± S.D.): 5.6 ± 4.06 ng/mL | concentration at 24 h (200 mg, 200 mg (fasted), 24 hr, Mean ± S.D.): 1.5 ± 1.15 ng/mL | concentration at 6 h (300 mg, 300 mg (fasted), 6 hr, Mean ± S.D.): 7.45 ± 7.48 ng/mL | concentration at 12 h (300 mg, 300 mg (fasted), 12 hr, Mean ± S.D.): 4.23 ± 3.26 ng/mL | concentration at 24 h (300 mg, 300 mg (fasted), 24 hr, Mean ± S.D.): 1.46 ± 0.43 ng/mL | concentration at 24 h (300 mg, 300 mg (fasted), 24 hr, individual subjects): 0.972 ng/mL | concentration at 6 h (300 mg, 300 mg (fed), 6 hr, Mean ± S.D.): 12 ± 9.39 ng/mL | concentration at 12 h (300 mg, 300 mg (fed), 12 hr, Mean ± S.D.): 8.31 ± 2.47 ng/mL | concentration at 12 h (300 mg, 300 mg (fed), 12 hr, individual subjects): 10.9 ng/mL | concentration at 24 h (300 mg, 300 mg (fed), 24 hr, Mean ± S.D.): 2.15 ± 0.86 ng/mL | concentration at 6 h (500 mg, 500 mg (fasted), 6 hr, Mean ± S.D.): 32.1 ± 12.2 ng/mL | concentration at 12 h (500 mg, 500 mg (fasted), 12 hr, Mean ± S.D.): 19.4 ± 6.56 ng/mL | concentration at 24 h (500 mg, 500 mg (fasted), 24 hr, Mean ± S.D.): 5.45 ± 1.47 ng/mL | concentration at 24 h (500 mg, 500 mg (fasted), 24 hr, individual subjects): 5.53 ng/mL | DCDQ concentration in plasma (50 mg (fasted), 6 hr, individual subjects): 0.9 ng/mL and 5.0 ng/mL | DCDQ concentration in plasma (50 mg (fasted), 12 hr, individual subjects): 0.7 ng/mL and 0.4 ng/mL and 2.5 ng/mL | DCDQ concentration in plasma (50 mg (fasted), 24 hr, individual subjects): 0.2 ng/mL and 0.6 ng/mL | DCDQ concentration in plasma (200 mg (fasted), 6 hr, individual subjects): 2.7 ng/mL and 18.0 ng/mL and 12.0 ng/mL | DCDQ concentration in plasma (200 mg (fasted), 12 hr, individual subjects): 1.2 ng/mL and 9.2 ng/mL and 6.4 ng/mL | DCDQ concentration in plasma (200 mg (fasted), 24 hr, individual subjects): 0.3 ng/mL and 2.6 ng/mL and 1.6 ng/mL | DCDQ concentration in plasma (300 mg (fasted), 6 hr, individual subjects): 2.09 ng/mL and 4.27 ng/mL and 16.0 ng/mL | DCDQ concentration in plasma (300 mg (fasted), 12 hr, individual subjects): 1.50 ng/mL and 3.34 ng/mL and 7.84 ng/mL | DCDQ concentration in plasma (300 mg (fasted), 24 hr, individual subjects): 1.72 ng/mL and 1.70 ng/mL | DCDQ concentration in plasma (300 mg (fed), 6 hr, individual subjects): 19.0 ng/mL and 15.6 ng/mL and 1.30 ng/mL | DCDQ concentration in plasma (300 mg (fed), 12 hr, individual subjects): 8.06 ng/mL and 5.97 ng/mL | DCDQ concentration in plasma (300 mg (fed), 24 hr, individual subjects): 2.60 ng/mL and 1.15 ng/mL and 2.69 ng/mL | DCDQ concentration in plasma (500 mg (fasted), 6 hr, individual subjects): 44.5 ng/mL and 31.7 ng/mL and 20.2 ng/mL | DCDQ concentration in plasma (500 mg (fasted), 12 hr, individual subjects): 24.5 ng/mL and 21.7 ng/mL and 12.0 ng/mL | DCDQ concentration in plasma (500 mg (fasted), 24 hr, individual subjects): 6.88 ng/mL and 3.95 ng/mL
